Experimental data: ChEMBL document CHEMBL4229536, “In vitro and in vivo pharmacokinetic and pharmacodynamic study of MBRI-001, a deuterium-substituted plinabulin derivative as a potent anti-cancer agent” (Bioorg Med Chem, 2018)

Key:
[1] = Drug excretion in Wistar rat urine at 4 mg/kg, iv measured after 36 hrs; type: ADME, organism-based; settings: read-out: Drug excretion
[2] = Half life in Wistar rat at 8 mg/kg, iv; type: ADME, organism-based; settings: in vivo
[3] = Stability in rat liver microsomes at 50 uM after 5 mins in presence of NADPH by LC-MS/MS analysis; type: ADME, microsome; settings: liver microsomes, read-out: Stability
[4] = Drug uptake in Wistar rat large intestine at 6 mg/kg, iv measured after 0.5 hrs; type: ADME, organism-based; settings: in vivo
[5] = Cmax in Wistar rat at 8 mg/kg, iv; type: ADME, organism-based; set-up: dose 8 mg/kg, route intravenous; settings: in vivo
[6] = Drug uptake in Wistar rat small intestine at 6 mg/kg, iv measured after 8 hrs; type: ADME, organism-based; settings: in vivo
[7] = test system: Mus musculus; assay: Toxicity in nude mouse xenografted with human NCI-H460 cells assessed as body weight at 3 mg/kg, iv administered once in every 2 days for 14 consecutive days (reference value: 20.6 +/- 1.5 g); type: organism-based; settings: in vivo, 48 h
[8] = Cmax in Wistar rat at 4 mg/kg, iv; type: ADME, organism-based; set-up: dose 4 mg/kg, route intravenous; settings: in vivo
[9] = Stability in rat liver microsomes at 50 uM after 40 mins in presence of NADPH by LC-MS/MS analysis; type: ADME, microsome; settings: read-out: Stability
[10] = Drug uptake in Wistar rat liver at 6 mg/kg, iv measured after 0.5 hrs; type: ADME, organism-based; settings: in vivo
[11] = biological target: Cytochrome P450 2D6 (Homo sapiens, UniProt P10635); assay: Inhibition of CYP2D6 in human liver microsomes preincubated for 10 mins followed by NADPH addition measured after 10 mins by LC-MS/MS analysis; type: ADME
Cytochrome P450 2D6, sequence (P10635 whole entry): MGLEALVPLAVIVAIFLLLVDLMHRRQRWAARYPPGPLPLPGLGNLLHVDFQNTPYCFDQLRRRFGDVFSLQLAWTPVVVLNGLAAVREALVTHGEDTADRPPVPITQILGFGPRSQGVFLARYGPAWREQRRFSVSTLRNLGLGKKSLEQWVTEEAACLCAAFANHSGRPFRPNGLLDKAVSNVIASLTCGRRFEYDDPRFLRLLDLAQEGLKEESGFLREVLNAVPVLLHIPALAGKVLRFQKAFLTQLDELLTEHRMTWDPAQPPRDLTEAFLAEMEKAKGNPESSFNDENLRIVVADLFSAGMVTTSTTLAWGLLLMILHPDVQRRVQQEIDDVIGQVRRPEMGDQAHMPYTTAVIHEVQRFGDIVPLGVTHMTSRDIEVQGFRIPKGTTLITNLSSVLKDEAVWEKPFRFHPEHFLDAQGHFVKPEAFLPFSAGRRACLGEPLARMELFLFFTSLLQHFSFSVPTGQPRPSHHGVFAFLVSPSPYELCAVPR

[12] = Drug excretion in Wistar rat feces at 4 mg/kg, iv measured after 12 hrs; type: ADME, organism-based; settings: faeces, read-out: Drug excretion
[13] = AUC (0 to infinity) in Wistar rat at 4 mg/kg, iv; type: ADME, organism-based; set-up: dose 4 mg/kg, time infinity, route intravenous; settings: in vivo
[14] = Drug excretion in Wistar rat feces at 4 mg/kg, iv measured after 108 hrs; type: ADME, organism-based; settings: faeces, read-out: Drug excretion
[15] = test system: Mus musculus; assay: Toxicity in Balb/c mouse assessed as mortality at 20 mg/kg, iv administered three times in a day every 2 days for 15 consecutive days; type: organism-based; settings: in vivo, 48 h
[16] = Drug uptake in Wistar rat liver at 6 mg/kg, iv measured after 4 hrs; type: ADME, organism-based; settings: in vivo
[17] = Clearance in Wistar rat at 4 mg/kg, iv; type: ADME, organism-based; settings: in vivo
[18] = Drug uptake in Wistar rat kidney at 6 mg/kg, iv measured after 12 hrs; type: ADME, organism-based; settings: in vivo
[19] = Stability in rat liver microsomes at 50 uM after 120 mins in presence of NADPH by LC-MS/MS analysis; type: ADME, microsome; settings: read-out: Stability
[20] = Drug excretion in Wistar rat feces at 4 mg/kg, iv measured after 4 hrs; type: ADME, organism-based; settings: faeces, read-out: Drug excretion
[21] = Drug uptake in Wistar rat lungs at 6 mg/kg, iv measured after 12 hrs; type: ADME, organism-based, Lung; settings: in vivo
[22] = Drug uptake in Wistar rat heart at 6 mg/kg, iv measured after 0.5 hrs; type: ADME, organism-based; settings: in vivo
[23] = Protein binding in Beagle dog plasma at 2 uM after 4 hrs by LC-MS/MS analysis; type: ADME, cell-free, Canis lupus familiaris; settings: read-out: PPB (converted)
[24] = Drug uptake in Wistar rat brain at 6 mg/kg, iv measured after 0.5 hrs; type: ADME, organism-based; settings: in vivo
[25] = test system: Mus musculus; assay: Toxicity in Balb/c mouse assessed as decrease in body weight at 10 to 15 mg/kg, iv administered three times in a day every 2 days for 15 consecutive days; type: organism-based; settings: in vivo, 48 h
[26] = Drug excretion in Wistar rat feces at 4 mg/kg, iv measured after 24 hrs; type: ADME, organism-based; settings: faeces, read-out: Drug excretion
[27] = Drug excretion in Wistar rat feces at 4 mg/kg, iv measured after 48 hrs; type: ADME, organism-based; settings: faeces, read-out: Drug excretion
[28] = Stability in rat plasma at 1 uM after 60 mins by LC-MS/MS analysis; type: ADME, cell-free; settings: read-out: Stability
[29] = Drug excretion in Wistar rat urine at 4 mg/kg, iv measured after 48 hrs; type: ADME, organism-based; settings: read-out: Drug excretion
[30] = Stability in rat liver microsomes at 50 uM after 150 mins in presence of NADPH by LC-MS/MS analysis; type: ADME, microsome; settings: read-out: Stability
[31] = Stability in rat liver microsomes at 50 uM after 270 mins in presence of NADPH by LC-MS/MS analysis; type: ADME, microsome; settings: 4.5 h
[32] = Drug uptake in Wistar rat liver at 6 mg/kg, iv measured after 8 hrs; type: ADME, organism-based; settings: in vivo
[33] = Stability in rat plasma at 1 uM after 120 mins by LC-MS/MS analysis; type: ADME, cell-free; settings: read-out: Stability
[34] = Drug uptake in Wistar rat spleen at 6 mg/kg, iv measured after 12 hrs; type: ADME, organism-based; settings: in vivo
[35] = test system: NCI-H460; assay: Antitumor activity against human NCI-H460 cells xenografted in nude mouse assessed as inhibition of tumor weight at 3 mg/kg, iv administered once in every 2 days for 14 consecutive days relative to control; type: functional; settings: 48 h
[36] = Drug uptake in Wistar rat kidney at 6 mg/kg, iv measured after 8 hrs; type: ADME, organism-based; settings: in vivo
[37] = Drug excretion in Wistar rat feces at 4 mg/kg, iv measured after 2 hrs; type: ADME, organism-based; settings: faeces, read-out: Drug excretion
[38] = Drug uptake in Wistar rat spleen at 6 mg/kg, iv measured after 0.5 hrs; type: ADME, organism-based; settings: in vivo
[39] = Drug uptake in Wistar rat liver at 6 mg/kg, iv measured after 1 hr; type: ADME, organism-based; settings: in vivo
[40] = Drug uptake in Wistar rat brain at 6 mg/kg, iv measured after 4 hrs; type: ADME, organism-based; settings: in vivo
[41] = test system: Mus musculus; assay: Toxicity in nude mouse xenografted with human NCI-H460 cells assessed as body weight at 3 mg/kg, iv administered once in every 2 days for 14 consecutive days cotreated with 25 mg/kg gefitinib once daily for 14 consecutive days (reference value: 20.6 +/- 1.5 g); type: organism-based; settings: in vivo, 48 h
[42] = Drug uptake in Wistar rat pancreas at 6 mg/kg, iv measured after 1 hr; type: ADME, organism-based; settings: in vivo
[43] = Drug uptake in Wistar rat heart at 6 mg/kg, iv measured after 4 hrs; type: ADME, organism-based; settings: in vivo
[44] = Drug uptake in Wistar rat pancreas at 6 mg/kg, iv measured after 0.5 hrs; type: ADME, organism-based; settings: in vivo
[45] = Drug uptake in Wistar rat pancreas at 6 mg/kg, iv measured after 12 hrs; type: ADME, organism-based; settings: in vivo
[46] = AUClast in Wistar rat at 4 mg/kg, iv; type: ADME, organism-based; set-up: dose 4 mg/kg, route intravenous, time 0 - last; settings: in vivo
[47] = Drug excretion in Wistar rat urine at 4 mg/kg, iv measured after 24 hrs; type: ADME, organism-based; settings: read-out: Drug excretion
[48] = Protein binding in Sprague-Dawley rat plasma at 2 uM after 4 hrs by LC-MS/MS analysis; type: ADME, cell-free; settings: read-out: PPB (converted)
[49] = Drug uptake in Wistar rat spleen at 6 mg/kg, iv measured after 1 hr; type: ADME, organism-based; settings: in vivo
[50] = Stability in rat liver microsomes at 50 uM after 60 mins in presence of NADPH by LC-MS/MS analysis; type: ADME, microsome; settings: read-out: Stability
[51] = Stability in rat plasma at 1 uM after 40 mins by LC-MS/MS analysis; type: ADME, cell-free; settings: read-out: Stability
[52] = Drug uptake in Wistar rat kidney at 6 mg/kg, iv measured after 4 hrs; type: ADME, organism-based; settings: in vivo
[53] = Drug excretion in Wistar rat urine at 4 mg/kg, iv measured after 2 hrs; type: ADME, organism-based; settings: read-out: Drug excretion
[54] = test system: NCI-H460; assay: Antitumor activity against human NCI-H460 cells xenografted in nude mouse assessed as inhibition of tumor weight at 6 mg/kg, iv administered once in every 2 days for 14 consecutive days relative to control; type: functional; settings: 48 h
[55] = Stability in rat plasma at 1 uM after 20 mins by LC-MS/MS analysis; type: ADME, cell-free; settings: read-out: Stability

`[2H]/C(c1nc[nH]c1C(C)(C)C)=c1/[nH]c(=O)/c(=C/c2ccccc2)[nH]c1=O` showed a dose excreted at 36 h [1] of 0.23%, a half-life [2] of 2.29 h and a remaining at 5 min, 50 µM [3] of 84.8%. It also gave a Drug uptake [4] of 1936.4 ng/mL/g, a Cmax [5] of 20100 ng/mL and a Drug uptake [6] of 160 ng/mL/g. The Activity [7] was 20.5 g, the Cmax [8] was 4420 ng/mL and the remaining at 40 min, 50 µM [9] was 56.5%. The Drug uptake [10] was 8281 ng/mL/g, the IC50 [11] was 18.4 µM and the dose excreted at 12 h [12] was 0.12%. For the same molecule, the AUC(0-inf) [13] was 1330 ng·h/mL, the dose excreted at 108 h [14] was 6.83% and the Activity [15] was “Toxic”. The Drug uptake [16] was 4220 ng/mL/g, the clearance [17] was 71.4 mL/min/kg and the Drug uptake [18] was 175.1 ng/mL/g. The remaining at 2 h, 50 µM [19] was 31.1%, the dose excreted at 4 h [20] was 0.11% and the Drug uptake [21] was 2023.8 ng/mL/g. It also gave a Drug uptake [22] of 2189.8 ng/mL/g, a fraction unbound at 4 h, 2 µM [23] of 0.027 and a Drug uptake [24] of 1756.2 ng/mL/g. For the same molecule, the Activity [25] was “Non-Toxic”, the dose excreted at 24 h [26] was 5.65% and the dose excreted at 48 h [27] was 6.1%. It also gave a remaining at 1 h, 1 µM [28] of 94.3%, a dose excreted at 48 h [29] of 0.26% and a remaining at 2.5 h, 50 µM [30] of 32.9%. The Stability [31] was 35.33%, the Drug uptake [32] was 1684.3 ng/mL/g and the remaining at 2 h, 1 µM [33] was 101%. The Drug uptake [34] was 287.3 ng/mL/g, the inhibition in vivo at 3 mg/kg [35] was 43% and the Drug uptake [36] was 636.5 ng/mL/g. For the same molecule, the dose excreted at 2 h [37] was 0%, the Drug uptake [38] was 4808.8 ng/mL/g and the Drug uptake [39] was 8791.2 ng/mL/g. It also gave a Drug uptake [40] of 166.5 ng/mL/g, an Activity [41] of 19.8 g and a Drug uptake [42] of 4538.9 ng/mL/g. It also gave a Drug uptake [43] of 567.3 ng/mL/g, a Drug uptake [44] of 7096.2 ng/mL/g and a Drug uptake [45] of 68.2 ng/mL/g. The AUC(0-t) [46] was 1330 ng·h/mL, the dose excreted at 24 h [47] was 0.2% and the fraction unbound at 4 h, 2 µM [48] was 0.042. For the same molecule, the Drug uptake [49] was 7146.9 ng/mL/g, the remaining at 1 h, 50 µM [50] was 47.1% and the remaining at 40 min, 1 µM [51] was 95.5%. It also gave a Drug uptake [52] of 3570.8 ng/mL/g, a dose excreted at 2 h [53] of 0.05% and an inhibition in vivo at 6 mg/kg [54] of 49.5%. The remaining at 20 min, 1 µM [55] was 95.8%.
